Laboratory results reported in patent US9309242B2, “Substituted pyrido[2,3-b]pyrazines as FGFR kinase inhibitors” (priority 2011, dated 2016).
Counter-ions that a name gives are not always drawn. Like-named read-outs stand apart in the source and are kept apart here.

How the values were obtained:
[1] = molecular target: FGFR4 (h) (Homo sapiens, UniProt P22455); experiment: FGFR4 (enzymatic assay), TR-FRET; type: biochemical; conditions: FGFR 4 pIC50, enzymatic assay
[2] = molecular target: T1, Ba/F3-FGFR3-transfected cells (Homo sapiens, UniProt P22607); experiment: Ba/F3-FGFR3 (minus IL3) cellular proliferation assay, Alamar Blue; type: cell-based
T1 construct: BAF3-FGFR3 (MIN IL3) pIC50; other: minus IL3
Summary of the method: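 Ba/F3 cells transfected with FGFR3, 20000/well in phenol red-free RPMI-1640 with 10% FBS, exposed to compound for 24 h at 37 °C, 5% CO2. Alamar Blue (resazurin) added for 4 h more; fluorescence read at ex 540/em 590 nm. Counterscreen run the same way with 10 ng/ml murine IL3.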

[3] = molecular target: KDR (h) (Homo sapiens, UniProt P35968); experiment: KDR (VEGFR2) (enzymatic assay), TR-FRET; type: biochemical; conditions: read-out: VEGFR 2 (KDR) pIC50 (converted)
Summary of the method: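 3 μM ATP, 500 nM Btn-Flt3 substrate, 150 ng/ml kinase; HEPES pH 7.5 with MnCl2, DTT, vanadate, Triton; 1% DMSO. 120 min RT. Stop: EDTA + Eu-anti-P-Tyr + SA-XL-665, 60 min RT. Readout TR-FRET ex340/em620, 655 nm, RFU.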

[4] = molecular target: FGFR2 (h) (Homo sapiens, UniProt P21802); experiment: FGFR2 (enzymatic assay), TR-FRET; type: biochemical; conditions: enzymatic assay, read-out: FGFR 2 pIC50 (converted)
Summary of the method: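 Phosphorylation of 500 nM Btn-Flt3 by human FGFR2 (150 ng/ml) is measured at 0.4 μM ATP. The buffer is 50 mM HEPES pH 7.5 containing 6 mM MnCl2, 1 mM DTT, 0.1 mM Na3VO4 and 0.01% Triton-X-100, and compound is tested at 1% DMSO final.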

[5] = molecular target: Ba/F3-FGFR4-transfected cells (Homo sapiens, UniProt P22455); experiment: Ba/F3-FGFR4 cellular proliferation assay, Alamar Blue; type: cell-based
Summary of the method: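 Fluorescence read-out (ex. 540 nm, em. 590 nm) of resazurin-based Alamar Blue after 4 h, following 24 h compound exposure of Ba/F3-FGFR4-transfected cells (20000/well) at 37° C, 5% CO2.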

[6] = tested on: Ba/F3-KDR-transfected cells; experiment: Ba/F3-KDR (plus IL3) cellular proliferation assay, counterscreen with 10 ng/ml murine IL3; type: cell-based; conditions: plus IL3 (10 ng/ml murine IL3, counterscreen); read-out: BAF3-KDR (PLUS IL3) pIC50 (converted)
Summary of the method: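 Read-out: resazurin-based Alamar Blue fluorescence (ex. 540, em. 590 nm) after 4 h. Before that, cells were incubated with compound for 24 h at 37° C. The counterscreen ran identically but with IL3 supplemented.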

[7] = molecular target: T2, Ba/F3-FGFR1-transfected cells (Homo sapiens, UniProt P11362); experiment: Ba/F3-FGFR1 (minus IL3) cellular proliferation assay, Alamar Blue; type: cell-based
T2 construct: BAF3-FGFR1 (MIN IL3) pIC50; other: minus IL3
Summary of the method: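 Ba/F3-FGFR1 cells (20000 per well) were exposed to compound for 24 h at 37 °C in RPMI-1640 with 10% FBS. Alamar Blue (resazurin) was then added for 4 h, and fluorescence was read at ex 540/em 590 nm.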

[8] = tested on: Ba/F3-FGFR1-transfected cells; experiment: Ba/F3-FGFR1 (plus IL3) cellular proliferation assay, counterscreen with 10 ng/ml murine IL3; type: cell-based; conditions: plus IL3 (10 ng/ml murine IL3, counterscreen); read-out: BAF3-FGFR1 (PLUS IL3) pIC50 (converted)
Summary of the method: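 Proliferation read-out: resazurin-based Alamar Blue fluorescence (540/590 nm) after 4 h, following 24 h compound treatment of 20000 Ba/F3-FGFR1 cells per well in 10% FBS RPMI at 37° C. IL3 counterscreen used the same protocol plus 10 ng/ml murine IL3.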

[9] = molecular target: FGFR3 (h) (Homo sapiens, UniProt P22607); experiment: FGFR3 (enzymatic assay), TR-FRET; type: biochemical; conditions: read-out: FGFR 3 pIC50 (converted)
Source text: Time-Resolved Fluorescence Resonance Energy Transfer (TR-FRET) signal (ex340 nm.

[10] = average values if tested multiple times

Ba/F3-FGFR4-transfected cells, sequence (P22455 whole entry, change not shown): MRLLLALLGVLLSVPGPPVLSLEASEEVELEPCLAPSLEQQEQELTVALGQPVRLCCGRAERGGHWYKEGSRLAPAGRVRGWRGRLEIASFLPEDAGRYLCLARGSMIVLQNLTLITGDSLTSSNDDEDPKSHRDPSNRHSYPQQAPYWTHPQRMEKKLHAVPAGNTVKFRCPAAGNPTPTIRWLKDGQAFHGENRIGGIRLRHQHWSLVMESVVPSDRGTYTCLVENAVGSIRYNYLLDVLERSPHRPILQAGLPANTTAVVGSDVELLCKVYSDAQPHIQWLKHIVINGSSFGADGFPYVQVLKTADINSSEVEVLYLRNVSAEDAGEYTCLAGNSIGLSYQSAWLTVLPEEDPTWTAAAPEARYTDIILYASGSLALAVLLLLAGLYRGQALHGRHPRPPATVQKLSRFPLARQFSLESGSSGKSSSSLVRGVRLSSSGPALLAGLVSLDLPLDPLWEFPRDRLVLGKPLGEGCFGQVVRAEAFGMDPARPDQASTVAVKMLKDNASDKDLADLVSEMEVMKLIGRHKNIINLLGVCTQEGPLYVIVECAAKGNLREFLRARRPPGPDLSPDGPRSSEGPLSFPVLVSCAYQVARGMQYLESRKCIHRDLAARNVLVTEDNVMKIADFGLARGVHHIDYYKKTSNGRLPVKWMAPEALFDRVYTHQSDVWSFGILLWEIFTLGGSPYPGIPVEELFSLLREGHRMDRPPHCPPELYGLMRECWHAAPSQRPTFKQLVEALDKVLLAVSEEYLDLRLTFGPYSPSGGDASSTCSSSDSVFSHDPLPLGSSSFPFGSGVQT
FGFR2 (h), sequence (P21802 22-821): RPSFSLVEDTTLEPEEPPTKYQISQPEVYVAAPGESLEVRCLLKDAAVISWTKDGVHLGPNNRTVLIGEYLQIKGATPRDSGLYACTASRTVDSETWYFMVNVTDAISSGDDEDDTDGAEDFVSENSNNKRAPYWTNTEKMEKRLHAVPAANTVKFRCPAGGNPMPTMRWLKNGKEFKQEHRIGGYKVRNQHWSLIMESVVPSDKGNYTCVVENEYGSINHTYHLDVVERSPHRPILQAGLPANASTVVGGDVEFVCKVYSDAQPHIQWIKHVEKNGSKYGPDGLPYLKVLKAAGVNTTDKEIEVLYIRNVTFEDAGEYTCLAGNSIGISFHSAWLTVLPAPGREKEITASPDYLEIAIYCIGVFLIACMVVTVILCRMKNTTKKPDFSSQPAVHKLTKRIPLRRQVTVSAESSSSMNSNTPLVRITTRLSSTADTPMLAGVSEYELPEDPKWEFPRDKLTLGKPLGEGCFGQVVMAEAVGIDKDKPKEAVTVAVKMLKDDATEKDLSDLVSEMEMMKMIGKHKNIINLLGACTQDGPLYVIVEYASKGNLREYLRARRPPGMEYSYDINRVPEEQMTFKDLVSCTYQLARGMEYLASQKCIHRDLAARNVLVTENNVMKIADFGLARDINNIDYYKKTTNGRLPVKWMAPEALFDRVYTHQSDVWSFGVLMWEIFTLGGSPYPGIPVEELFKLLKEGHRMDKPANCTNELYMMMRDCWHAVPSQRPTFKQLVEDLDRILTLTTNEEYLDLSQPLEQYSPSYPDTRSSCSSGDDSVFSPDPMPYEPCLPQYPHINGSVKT
T2 sequence (P11362 whole entry, change not shown): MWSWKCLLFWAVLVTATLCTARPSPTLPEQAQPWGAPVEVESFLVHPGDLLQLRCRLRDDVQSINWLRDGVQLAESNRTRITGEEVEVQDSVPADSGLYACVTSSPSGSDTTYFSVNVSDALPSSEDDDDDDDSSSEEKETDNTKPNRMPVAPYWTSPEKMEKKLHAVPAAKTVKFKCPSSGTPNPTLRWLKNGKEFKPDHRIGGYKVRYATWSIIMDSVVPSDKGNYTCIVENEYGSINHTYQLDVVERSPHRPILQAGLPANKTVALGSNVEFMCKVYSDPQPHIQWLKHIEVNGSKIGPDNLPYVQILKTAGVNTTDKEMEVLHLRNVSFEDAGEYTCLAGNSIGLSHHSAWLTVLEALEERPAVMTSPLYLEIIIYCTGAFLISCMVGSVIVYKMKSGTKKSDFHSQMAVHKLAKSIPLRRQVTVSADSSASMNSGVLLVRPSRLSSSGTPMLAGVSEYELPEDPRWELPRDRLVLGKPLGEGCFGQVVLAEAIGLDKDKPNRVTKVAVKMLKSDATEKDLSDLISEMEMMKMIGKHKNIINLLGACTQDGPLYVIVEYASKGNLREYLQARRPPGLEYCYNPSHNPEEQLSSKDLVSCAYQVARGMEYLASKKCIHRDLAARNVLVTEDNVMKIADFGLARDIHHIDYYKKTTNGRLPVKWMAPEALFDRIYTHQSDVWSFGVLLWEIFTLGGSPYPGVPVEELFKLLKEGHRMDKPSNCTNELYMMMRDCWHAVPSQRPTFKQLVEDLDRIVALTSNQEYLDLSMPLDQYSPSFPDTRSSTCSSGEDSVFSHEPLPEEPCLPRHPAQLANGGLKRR
T1 sequence (P22607 whole entry, change not shown): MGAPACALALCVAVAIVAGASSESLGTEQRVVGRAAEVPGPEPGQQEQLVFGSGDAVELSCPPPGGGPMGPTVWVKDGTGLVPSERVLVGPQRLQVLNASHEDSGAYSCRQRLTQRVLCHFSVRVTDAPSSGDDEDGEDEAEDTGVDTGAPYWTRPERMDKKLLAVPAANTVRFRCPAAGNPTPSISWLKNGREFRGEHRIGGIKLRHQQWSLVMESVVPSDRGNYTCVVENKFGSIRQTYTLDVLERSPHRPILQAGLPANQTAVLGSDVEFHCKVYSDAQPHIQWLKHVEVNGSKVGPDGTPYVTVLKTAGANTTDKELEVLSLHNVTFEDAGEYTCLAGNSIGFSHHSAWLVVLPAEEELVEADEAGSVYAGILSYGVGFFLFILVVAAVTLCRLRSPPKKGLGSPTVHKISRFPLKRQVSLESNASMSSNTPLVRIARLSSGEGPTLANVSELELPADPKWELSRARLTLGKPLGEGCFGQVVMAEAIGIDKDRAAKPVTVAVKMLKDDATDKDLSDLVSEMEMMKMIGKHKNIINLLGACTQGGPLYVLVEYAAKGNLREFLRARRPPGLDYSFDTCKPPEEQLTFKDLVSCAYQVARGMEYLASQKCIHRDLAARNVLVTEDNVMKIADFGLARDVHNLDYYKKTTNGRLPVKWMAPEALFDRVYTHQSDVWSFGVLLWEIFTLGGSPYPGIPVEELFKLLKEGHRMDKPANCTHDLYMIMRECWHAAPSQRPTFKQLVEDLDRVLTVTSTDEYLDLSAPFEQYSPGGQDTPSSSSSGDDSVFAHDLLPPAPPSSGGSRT
FGFR3 (h), sequence (P22607 23-806): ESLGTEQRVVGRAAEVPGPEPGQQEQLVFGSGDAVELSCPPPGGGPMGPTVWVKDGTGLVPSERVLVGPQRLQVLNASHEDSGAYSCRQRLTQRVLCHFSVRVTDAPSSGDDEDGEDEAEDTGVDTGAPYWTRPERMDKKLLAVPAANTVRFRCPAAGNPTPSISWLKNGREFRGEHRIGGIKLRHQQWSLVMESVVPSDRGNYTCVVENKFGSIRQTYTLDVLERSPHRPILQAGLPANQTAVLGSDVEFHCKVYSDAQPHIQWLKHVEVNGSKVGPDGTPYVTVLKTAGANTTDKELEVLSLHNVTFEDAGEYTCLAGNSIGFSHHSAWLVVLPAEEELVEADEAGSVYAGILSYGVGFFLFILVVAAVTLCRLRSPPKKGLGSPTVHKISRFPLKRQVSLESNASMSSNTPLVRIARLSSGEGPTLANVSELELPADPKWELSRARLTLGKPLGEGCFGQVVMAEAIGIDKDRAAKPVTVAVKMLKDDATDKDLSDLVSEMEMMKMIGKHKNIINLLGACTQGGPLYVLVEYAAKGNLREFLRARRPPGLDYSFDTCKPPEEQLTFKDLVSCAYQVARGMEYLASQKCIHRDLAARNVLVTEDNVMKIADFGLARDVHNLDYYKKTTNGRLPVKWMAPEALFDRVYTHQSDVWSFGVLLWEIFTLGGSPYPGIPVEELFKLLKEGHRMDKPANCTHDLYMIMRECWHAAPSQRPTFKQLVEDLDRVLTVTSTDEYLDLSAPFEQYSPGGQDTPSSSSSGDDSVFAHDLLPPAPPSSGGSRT
FGFR4 (h), sequence (P22455 22-802): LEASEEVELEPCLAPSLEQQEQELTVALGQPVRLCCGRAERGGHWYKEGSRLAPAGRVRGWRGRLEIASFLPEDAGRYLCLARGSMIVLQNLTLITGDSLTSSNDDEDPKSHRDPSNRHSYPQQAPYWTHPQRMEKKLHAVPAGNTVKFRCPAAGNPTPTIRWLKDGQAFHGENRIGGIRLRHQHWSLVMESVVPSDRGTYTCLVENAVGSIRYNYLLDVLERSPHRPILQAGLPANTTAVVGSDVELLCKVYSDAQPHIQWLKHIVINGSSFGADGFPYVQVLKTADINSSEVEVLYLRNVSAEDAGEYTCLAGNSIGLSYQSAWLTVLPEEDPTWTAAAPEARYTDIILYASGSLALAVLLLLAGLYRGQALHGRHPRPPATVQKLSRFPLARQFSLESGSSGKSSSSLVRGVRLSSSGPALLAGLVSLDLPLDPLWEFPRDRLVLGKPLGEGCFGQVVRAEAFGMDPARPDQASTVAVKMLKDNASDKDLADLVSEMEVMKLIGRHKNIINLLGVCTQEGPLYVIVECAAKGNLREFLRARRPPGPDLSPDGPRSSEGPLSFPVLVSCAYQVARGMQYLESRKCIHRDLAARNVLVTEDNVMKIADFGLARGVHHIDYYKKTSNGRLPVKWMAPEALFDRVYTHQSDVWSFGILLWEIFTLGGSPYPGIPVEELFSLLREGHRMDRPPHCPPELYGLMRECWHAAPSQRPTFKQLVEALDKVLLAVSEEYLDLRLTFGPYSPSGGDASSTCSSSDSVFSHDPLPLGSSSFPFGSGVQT

CNCCN(c1ccc2ncc(-c3cnn(C)c3)nc2n1)c1c(F)c(OC)cc(OC)c1F [Compound 3]
IC50 [1, 10]: 6.46 nM
BAF3-FGFR3 (MIN IL3) pIC50 [2]: ~8.04
IC50 [3, 10]: 21.9 nM
IC50 [4, 10]: 3.09 nM
BAF3-FGFR4 pIC50 [5]: 7.37
IC50 [6]: > 10000 nM
BAF3-FGFR1 (MIN IL3) pIC50 [7]: 8.38
IC50 [8]: > 10000 nM
IC50 [9, 10]: 2.57 nM

COc1cc(OC)c(F)c(N(Cc2ncc[nH]2)c2ccc3ncc(-c4cnn(Cc5ncc[nH]5)c4)nc3n2)c1 [Compound 100]
IC50 [1, 10]: 1.29 nM
BAF3-FGFR3 (MIN IL3) pIC50 [2]: 7.56
IC50 [3, 10]: 8.13 nM
IC50 [4, 10]: 2.14 nM
BAF3-FGFR4 pIC50 [5]: 6.99
IC50 [6]: > 10000 nM
BAF3-FGFR1 (MIN IL3) pIC50 [7]: 8.02
IC50 [8]: > 10000 nM
IC50 [9, 10]: 1.29 nM

CNCCN(c1ccc2ncc(-c3cnn(C)c3)nc2n1)c1c(Cl)c(OC)cc(OC)c1Cl [Compound 81]
IC50 [1, 10]: 70.8 nM
BAF3-FGFR3 (MIN IL3) pIC50 [2]: 6.67
IC50 [3, 10]: 195 nM
IC50 [4, 10]: 9.12 nM
BAF3-FGFR4 pIC50 [5]: 5.76
IC50 [6]: > 10000 nM
BAF3-FGFR1 (MIN IL3) pIC50 [7]: 7.04
IC50 [8]: > 10000 nM
IC50 [9, 10]: 8.13 nM

CNCCN(c1ccc2ncc(-c3cn[nH]c3)nc2n1)c1c(F)c(OC)cc(OC)c1F [Compound 106]
IC50 [1, 10]: 4.68 nM
BAF3-FGFR3 (MIN IL3) pIC50 [2]: ~7.12
IC50 [3, 10]: 25.1 nM
IC50 [4, 10]: 2.14 nM
BAF3-FGFR4 pIC50 [5]: ~6.65
IC50 [6]: > 10000 nM
BAF3-FGFR1 (MIN IL3) pIC50 [7]: 7.86
IC50 [8]: > 10000 nM
IC50 [9, 10]: 1.48 nM

COc1cc(OC)c(Cl)c(N(CC2CCC(=O)N2)c2ccc3ncc(-c4cnn(C)c4)nc3n2)c1Cl (single isomer, unassigned) [Compound 88]
IC50 [1, 10]: 42.7 nM
BAF3-FGFR3 (MIN IL3) pIC50 [2]: 6.57
IC50 [3, 10]: 102 nM
IC50 [4, 10]: 9.12 nM
BAF3-FGFR4 pIC50 [5]: 5.65
IC50 [6]: > 10000 nM
BAF3-FGFR1 (MIN IL3) pIC50 [7]: 6.68
IC50 [8]: > 10000 nM
IC50 [9, 10]: 6.76 nM

COc1cc(OC)c(F)c(N(Cc2cn[nH]c2)c2ccc3ncc(-c4cnn(C)c4)nc3n2)c1 [Compound 125]
IC50 [1]: 1.58 nM
BAF3-FGFR3 (MIN IL3) pIC50 [2]: ~7.57
IC50 [3]: 8.71 nM
IC50 [4]: 0.794 nM
BAF3-FGFR4 pIC50 [5]: ~7.15
IC50 [6]: > 10000 nM
BAF3-FGFR1 (MIN IL3) pIC50 [7]: 7.61
IC50 [8]: > 10000 nM
IC50 [9]: 0.724 nM

COc1cc(/N=c2\ccc3ncc(-c4cnn(C)c4)nc3n2CC2COC(=O)N2)c(F)c(OC)c1 (stereo not drawn) [Compound 123]
IC50 [1]: 2.75 nM
BAF3-FGFR3 (MIN IL3) pIC50 [2]: 7.16
IC50 [3]: 21.9 nM
IC50 [4]: 1.26 nM
BAF3-FGFR4 pIC50 [5]: 6.62
IC50 [6]: > 10000 nM
BAF3-FGFR1 (MIN IL3) pIC50 [7]: 7.21
IC50 [8]: > 10000 nM
IC50 [9]: 0.741 nM

COc1cc(OC)cc(N(Cc2ncc[nH]2)c2ccc3ncc(-c4cnn(C)c4)nc3n2)c1 (racemic) [24-DL-tartrate salt]
IC50 [1, 10]: 1.12 nM
BAF3-FGFR3 (MIN IL3) pIC50 [2]: 8.21
IC50 [3, 10]: 11.7 nM
IC50 [4, 10]: 1.32 nM
BAF3-FGFR4 pIC50 [5]: 7.62
IC50 [6]: > 10000 nM
BAF3-FGFR1 (MIN IL3) pIC50 [7]: 8.47
IC50 [8]: > 10000 nM
IC50 [9, 10]: 0.741 nM

COc1cc(OC)c(F)c(/N=c2\ccc3ncc(-c4cnn(C)c4)nc3n2CCN)c1F [Compound 68]
IC50 [1, 10]: 2 nM
BAF3-FGFR3 (MIN IL3) pIC50 [2]: 7.70
IC50 [3, 10]: 15.8 nM
IC50 [4, 10]: 1.58 nM
BAF3-FGFR4 pIC50 [5]: 7.14
IC50 [6]: > 10000 nM
BAF3-FGFR1 (MIN IL3) pIC50 [7]: 7.86
IC50 [8]: > 10000 nM
IC50 [9, 10]: 1.62 nM

COc1ccc(F)c(N(Cc2ncc[nH]2)c2ccc3ncc(-c4cnn(C)c4)nc3n2)c1Cl [Compound 73]
IC50 [1, 10]: 15.1 nM
BAF3-FGFR3 (MIN IL3) pIC50 [2]: 7.46
IC50 [3, 10]: 63.1 nM
IC50 [4, 10]: 2.82 nM
BAF3-FGFR4 pIC50 [5]: 6.50
IC50 [6]: > 10000 nM
BAF3-FGFR1 (MIN IL3) pIC50 [7]: 7.59
IC50 [8]: > 10000 nM
IC50 [9, 10]: 2.82 nM
